Results published in patent publication US10786575B2, “Self-emulsifying composition of Ω3 fatty acid” (priority 2015, dated 2020).
Read-outs that look alike come from different tables or passages of the source.

Experiments:
[1] = human, in vivo, po, 3600 mg
Experimental: (§1) The capsule having the self-emulsifying composition of the present invention containing 80% by weight of EPA-E as its content was orally administered to human (12 cases, healthy adult males of 20 to 40 years old with a body weight of 55.0 to 77.0 kg and a BMI of 18.5 or more but less than 25.0) under fasting conditions to evaluate the change of blood EPA concentration. The self-emulsifying composition in an amount corresponding to 1800 mg of EPA-E was orally administered in single dose to each human who had been fasted since 10 hours or more before the administration by using 200 mL of water in the morning under fasting. The blood was collected 0.5, 1, 1.5, 2, 3, 4, 5, 6, 7, 8, 9, 10, 12, 15, 18, 24, 48 and 72 hours after the administration. Immediately after the collection, the blood was cooled on ice, and centrifuged at 2000×g at 4° C. for 10 minutes to separately collect the plasma. After having stored the resulting plasma at a temperature not higher than −20° C. in frozen state, concentration of the EPA in the plasma was measured by LC/MS/MS (method in which a sample is isolated by liquid chromatography, then subjected to mass spectrometry to conduct separation and measurement thereon).
(§2) The capsule having the self-emulsifying composition of the present invention containing 80% by weight of EPA-E as its content was also orally administered to human immediately after meals, and the measurement was conducted by repeating the procedure as described above.
(§3) For the control group, the EPA-E stock solution (high purity EPA-E (at least 96.5% by weight) containing no emulsifier or the like and used with the same EPA-E amount as that of the self-emulsifying composition of the present invention; the same applying hereafter) filled in the capsule was orally administered to human (12 cases, healthy adult males of 20 to 40 years old with a body weight of 55.0 to 77.0 kg and a BMI of 18.5 or more but less than 25.0) under fasting conditions (fasting since at least 10 hours before the administration), and the measurement was conducted by repeating the procedure as described above.
This test was conducted on 6 humans. […] In the calculation of each parameter, correction was made by subtracting the blood EPA concentration before the administration from the measured blood concentration.

[2] = Test Example 5: pharmacokinetics in beagles (plasma EPA, LC/MS/MS); design: species or system male beagles; conditions: dog, in vivo, po, 600 mg
Experimental: The produced compositions or capsules (Examples 1, 3 and 5) were each orally administered to 6 male beagles (at the age of 2 to 6 years with the body weight of 8 to 13 kg, 3 Marshall beagles and 3 Nosan beagles) under fasting conditions, and blood EPA concentration was evaluated. […] The control group was administered with the EPA-E stock solution encapsulated in a capsule.

[3] = human, in vivo, po, 1800 mg
Experimental: as §1, §2, §3
In the calculation of each parameter, correction was made by subtracting the blood EPA concentration before the administration from the measured blood concentration.

- AUC0-72 hr [1]: 113700 ng·h/mL
- Cmax [1]: 3600 ng/mL
- Tmax [1]: 21.8 h
- t½ [1]: 22.8 h
- AUC0-1 [2]: 11300 ng·h/mL
- AUC0-26 [2]: 76600 ng·h/mL
- Cmax [2]: 18400 ng/mL
- AUC0-72 hr [3]: 113100 ng·h/mL
- Cmax [3]: 4600 ng/mL
- Tmax [3]: 10.8 h
- t½ [3]: 71.7 h
SMILES: CC/C=C\C/C=C\C/C=C\C/C=C\C/C=C\CCCC(=O)OCC [Comp. Ex. 5, Ethyl eicosapentaenoate]
